Patent publication US9932589B2, “EML4-ALK fusion gene” (Astellas Pharma Inc., priority 2006, dated 2018)

Experiments:
[1] = tested on: human ALK gene; test: siRNA inhibition of mRNA expression of ALK gene in U-87MG cells, quantitative PCR; format: cell-based; conditions: siRNA 20 nM, 72 hours, mRNA
Description: (§1) The v1 expressing 3T3 cells and U-87MG cells were seeded to 12 well plates (IWAKI; Asahi techno glass corp.) at 50,000 cells and 150,000 cells, respectively. Four hours later, using a transfection reagent (Lipofectamine RNAiMax; Invitrogen Inc.), siRNA-1 to siRNA-9 were prepared to a final concentration of 20 nM and transfected to cells according to the attached instruction. In addition, as a control no siRNA transfection samples were prepared. After 72 hours, the medium was removed, and total RNA was extracted using an RNA purification kit (RNeasy Mini Kit; QIAGEN Inc.) according to the attached instruction, and cDNA was prepared using a cDNA synthesizing kit (ThermoScript RT-PCR System; Invitrogen Inc.) according to the attached instruction.
(§2) The amount of expressed mRNA of the EML4-ALK fusion polynucleotide v1 in v1 expressing 3T3 cells and the amount of mRNA of the ALK gene in U-87MG cells were quantitated using a quantitative PCR reagent (Power SYBR Green PCR Master Mix; Applied Biosystems Inc.) The PCR reaction was carried out as follows: after 10 minutes incubation at 95° C., 45 cycles of 95° C. for 15 seconds and 60° C. for 60 seconds, and then one cycle of 95° C. for 15 seconds, 60° C. for 15 seconds and 95° C. for 15 seconds to complete the reaction. In addition, to calibrate the amount of expression, the amount of expression of the mouse cyclophilin B gene and the human GAPDH gene was similarly quantitated for v1 expressing 3T3 cells and U-87MG cells, respectively. Analyses were carried out using a sequence detector (ABI PRISM 7900 Sequence Detection System; Perkin-Elmer Applied Biosystems Inc.).
(§3) Oligo nucleotides consisting of the base sequences represented by SEQ ID NO: 44 and 48, SEQ ID NO: 50 and 56, SEQ ID NO: 44 and 48 and SEQ ID NO: 12 and 13 were used as the primer sets that specifically recognize the EML4-ALK fusion polynucleotide v1, the mouse cyclophilin B gene, the human ALK gene and the human GAPDH gene. Also, to obtain a standard curve to calculate the amount of respective mRNA, PCR was performed using human genomic DNA (Clontech) as a template for EML4-ALK fusion polynucleotide v1, human ALK and human GAPDH, and using mouse genomic DNA (Clontech) as a template for mouse cyclophilin B and the aforementioned primer sets under the same condition. Since a primer set corresponding to human ALK polynucleotide exon 29 was used to detect the EML4-ALK fusion polynucleotide v1, the standard curve can be obtained using human genomic DNA. The expression amount of the EML4-ALK fusion polynucleotide v1 and the human ALK gene in respective samples was calibrated with the expression amount of the mouse cyclophilin B gene and the human GAPDH gene to obtain the calibrated expression amount.

[2] = tested on: U-87MG cells; test: anchorage independent growth on spheroid plate, U-87MG cells expressing full length ALK; format: cell-based, human; conditions: siRNA transfected, 3 days; for U-87MG cell growth inhibition rate: spheroid plate
Description: (§4) The v1 expressing 3T3 cells (Example 6(1)) and one of the human glioma cells expressing the full length ALK polypeptide and not expressing EML4-ALK fusion polynucleotide endogenously, U-87 MG cells, were seeded to a 96 well spheroid plate (Sumilon Celltight Spheroid 96U, Sumitomo Bakelite Inc.) at 3000 cells per well in a medium containing 10% fetal bovine serum (DMEM for v1 expressing 3T3 cells and RPMI 1640 for U-87MG). […] At the same time, cells were counted before the addition of drugs (Day 0). Then, cells were cultured under 5% CO2, at 37° C. for 3 days, mixed with a reagent for measuring cell number (CellTiter-Glo™ Luminescent Cell Viability Assay; Promega Inc.) stirred for 20 minutes, and the measurements (day 3) were carried out using a luminometer (ML3000 microtiter plate luminometer; Dynatech Laboratories Inc.).

[3] = tested on: EML4-ALK fusion polynucleotide v1; test: siRNA inhibition of mRNA expression of EML4-ALK fusion polynucleotide v1 in v1 expressing 3T3 cells, quantitative PCR; format: cell-based, mouse; conditions: siRNA 20 nM, 72 hours, mRNA
Description: as §1, §2, §3

[4] = tested on: v1 expressing 3T3 cells; test: anchorage independent growth on spheroid plate, v1 expressing 3T3 cells; format: cell-based, mouse; conditions: siRNA transfected, spheroid plate, 3 days
Description: as §4

Row | Substance | Inhibition rate for ALK gene expression (U-87 MG cells) [1] [%] | U-87MG cell growth inhibition rate [2] [%] | Inhibition rate for EML4-ALK gene expression (v1 expressing 3T3 cells) [3] [%] | v1 expressing 3T3 cells growth inhibition rate [4] [%] | growth of U-87MG cells (in words) [2]
1 | siRNA-1: siRNA, sense strand SEQ ID NO: 111, antisense SEQ ID NO: 112; fusion area of EML4-ALK v1 (sense UGGGAAAGGACCUAAAGTGTA; antisense CACTTTAGGUCCUUUCCCAGG; chemistry not given here) | −12 | −13 | 80 |  | 
2 | siRNA-2: siRNA, sense strand SEQ ID NO: 113, antisense SEQ ID NO: 114; fusion area of EML4-ALK v1 (sense GGGAAAGGACCUAAAGTGTAC; antisense ACACTTUAGGUCCUUUCCCAG; chemistry not given here) | 11 | 25 | 66 |  | 
3 | siRNA-3: siRNA, sense strand SEQ ID NO: 115, antisense SEQ ID NO: 116; fusion area of EML4-ALK v1 (sense GGACCUAAAGUGUACCGCCGG; antisense GGCGGTACACUUUAGGUCCUU; chemistry not given here) | 10 | −21 | 62 |  | 
4 | siRNA-4: siRNA, sense strand SEQ ID NO: 117, antisense SEQ ID NO: 118; fusion area of EML4-ALK v1 (sense CCUAAAGUGUACCGCCGGAAG; antisense TCCGGCGGUACACUUUAGGUC; chemistry not given here) | 22 | −8 | 86 |  | 
5 | siRNA-5: siRNA, sense strand SEQ ID NO: 119, antisense SEQ ID NO: 120; fusion area of EML4-ALK v1 (sense AAAGUGUACCGCCGGAAGCAC; antisense GCTTCCGGCGGUACACUUUAG; chemistry not given here) | −22 | −13 | 76 |  | 
6 | siRNA-6: siRNA, sense strand SEQ ID NO: 121, antisense SEQ ID NO: 122; fusion area of EML4-ALK v1 (sense AAGUGUACCGCCGGAAGCACC; antisense TGCTTCCGGCGGUACACUUUA; chemistry not given here) | 15 | 16 | 69 | 97 | 
7 | siRNA-7: siRNA, sense strand SEQ ID NO: 123, antisense SEQ ID NO: 124; ALK area of EML4-ALK v1 (sense GGCCUGUAUACCGGATAATGA; antisense ATTATCCGGUAUACAGGCCCA; chemistry not given here) |  | 15 | 67 | 87 | did not inhibit the growth of U-87MG cells
8 | siRNA-8: siRNA, sense strand SEQ ID NO: 125, antisense SEQ ID NO: 126; ALK area of EML4-ALK v1 (sense GGCCUGUAUACCGGAUAAUGA; antisense AUUAUCCGGUAUACAGGCCCA; chemistry not given here) |  | −21 | 70 |  | did not inhibit the growth of U-87MG cells
